Assay [1] has as its target LMP7 subunit of the immunoproteasome (Homo sapiens, UniProt P28062). The note with it: background, Singh et al 2011; cited from earlier work.
The target in assay [2] is LMP7 (purified human immuno proteasome) (Homo sapiens, UniProt P28062). As to the kind of experiment: Determination of LMP7 activity (fluorescence intensity assay, Suc-LLVY-AMC). In kind it is biochemical. The note with it: for IC50: incubation for 20 minutes at 25° C., concentrations 30 μM to 15 pM, read-out: LMP7 IC50. The method, then:
Biological Activity Determination of LMP7 Activity:
Measurement of LMP7 inhibition is performed in 384 well format based on fluorescence intensity assay.
(§1) Purified human immuno proteasome (0.25 nM) and serial diluted compounds in DMSO (range of concentrations from 30 μM to 15 pM) or controls are incubated for 20 minutes or 120 minutes (long incubation) at 25° C. in assay buffer containing 50 mM Tris pH 7.4, 0.03% SDS, 1 mM EDTA and 1% DMSO. The reaction is initiated by the addition of the fluorogenic peptide substrate, Suc-LLVY-AMC (Bachem 1-1395), at a concentration of 40 μM. After 60 minutes of incubation at 37° C., fluorescence intensity is measured at λex=350 nm and λem=450 nm with a fluorescence reader (Perkin Elmer Envision reader or equivalent).
(§2) Unless indicated otherwise the results are obtained after incubation for 20 minutes.

The target of assay [3] is Beta5 (purified human constitutive proteasome) (Homo sapiens, UniProt P28074). As to the kind of experiment: Determination of Beta5 activity (fluorescence intensity assay, Suc-LLVY-AMC). In kind it is biochemical. The note with it: incubation for 20 minutes at 25° C.; concentrations 30 μM to 15 pM; read-out: Beta5 IC50. The method, then:
Determination of Beta5 Activity:
Measurement of Beta5 inhibition is performed in 384 well format based on fluorescence intensity assay.
as §1, with “constitutive” for “immuno”, “(1.25” for “(0.25”
as §2

This is an account of results in patent US11858951B2, “Boronic acid derivatives” (Merck Patent GmbH, priority 2017, dated 2024).

On to `CC1=C(C(=O)N[C@H](C)C(=O)N[C@@H](Cc2c[nH]c3ccccc23)C(=O)N[C@@H](Cc2ccccc2)C(=O)[C@@]2(C)CO2)Cc2ccccc21` [PR-924], for which the “selectivity for the LMP7 subunit of the immunoproteasome” value in assay [1] is given as 100 fold.

With `O=C(N[C@@H](Cc1coc2c(Cl)cccc12)B(O)O)[C@H]1C[C@@H]2CC[C@H]1O2` [compound 12, [(1R)-2-(7-chloro-1-benzofuran-3-yl)-1-{[(1R,2S,4S)-7-oxabicyclo[2.2.1]heptan-2-yl]formamido}ethyl]boronic acid], the “Selectivity LMP7 vs Beta5” value in assay [2] (LMP7 versus Beta5, incubation for 20 minutes) was “+++++ (Selectivity ≥700)”. The IC50 in assay [2] was less than 0.05 µM; in assay [3], 5 to 30 µM.

`O=C(N[C@@H](Cc1ccsc1)B(O)O)[C@@H]1C[C@H]2CC[C@@H]1O2` [compound 3, [(1R)-1-{[(1S,2R,4R)-7-oxabicyclo[2.2.1]heptan-2-yl]formamido}-2-(thiophen-3-yl)ethyl]boronic acid]: the IC50 in assay [2] is 0.5 to 5 µM; in assay [3], greater than 30 µM.
